Experimental findings from patent publication US20090054376A1, “BENZOFURAN DERIVATIVES WITH THERAPEUTIC ACTIVITIES” (Pharmos Corporation, priority 2005, published 2009) are described below.

One series concerns the target T1, Human CB1 Receptor (Homo sapiens, UniProt P21554).
T1 construct: expressed in transfected cells; host or cells: HEK-293 cells (membranes)
The series can be described thus: [35S]GTPγS-binding assay, hCB1. It is filed as biochemical. The settings on record: NB = no binding; for Emax: upper plateau of curve. As to the method: (§1) Functional activity of compounds of the invention toward the cannabinoid receptors was determined by stimulation of [^35S]-GTPγS binding using membranes from HEK-293 cells expressing the hCB1 receptor and membranes expressing the hCB2 receptor derived from either Sf9 (PerkinElmer) or from HEK-293 cells. Activities were compared to that of the known cannabinoid full agonist CP55940 (Alexis). The purpose of this experiment is to determine the potency of the compounds of the invention as agonists or antagonists toward each of the receptor tested.
(§2) [^35S]-GTPγS binding reactions were performed at 30° C. in 96-well plates containing 5-10 μg membrane protein suspended in 0.1 ml binding buffer [20 mM HEPES-NaOH, pH 7.4, 5 mM MgCl2, 100 mM NaCl, 0.2% (w/v) bovine serum albumin] supplemented with 50 μM GDP and 0.06 nM-10 μM of the compound being tested. Binding was initiated by the addition of [^35S]GTPγS (0.3 nM final concentration). Incubations were performed for 90 minutes and were terminated by filtration on GF/C filter plates (PerkinEimer). Filters were washed ten times with ice-cold wash buffer (20 mM HEPES-NaOH, pH 7.4, 10 mM sodium pyrophosphate). Non-specific binding was measured in the presence of 15 μM GTPγS.
(§3) Assays were performed in duplicates. Data was analyzed by plotting on the X axis the log concentration against percent of specific [^35S]GTPγS binding out of basal [^35S]GTPγS binding on the Y axis, non-linear regression is then performed using GraphPad Prism, version 3.0 (GraphPad, San Diego, Calif.) to calculate the EC50 and Emax of the compound. The EC50 value represents the concentration at which there is 50% [^35S]GTPγS binding and the Emax value the upper plateau of the curve.

For a further series, the target named is T2, Human CB2 Receptor (Homo sapiens, UniProt P34972).
T2 construct: host or cells: Sf9 or HEK-293 cells (membranes)
T2 sequence (P34972 whole entry): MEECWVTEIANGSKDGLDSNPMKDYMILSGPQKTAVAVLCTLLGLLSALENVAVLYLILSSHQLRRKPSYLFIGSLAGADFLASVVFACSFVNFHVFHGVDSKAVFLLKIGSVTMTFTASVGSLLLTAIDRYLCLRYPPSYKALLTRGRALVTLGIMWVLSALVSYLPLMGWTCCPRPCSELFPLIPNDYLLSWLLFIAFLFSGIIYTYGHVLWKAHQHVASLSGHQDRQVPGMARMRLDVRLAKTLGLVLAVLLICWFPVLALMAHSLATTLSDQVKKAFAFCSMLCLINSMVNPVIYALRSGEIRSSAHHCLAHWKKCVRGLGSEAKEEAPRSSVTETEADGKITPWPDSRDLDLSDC
The series can be described thus: [35S]GTPγS-binding assay, hCB2. It is filed as biochemical. The settings on record: GTPγS; for agonistic activity toward cannabinoid receptors (in words): hCB1 and hCB2. The method, then:
as §1, §2, §3
On the technique in general: GTPγS resists hydrolysis and so accumulates on activated G proteins.

Series [1] concerns CB1 related cannabimimetic activity. Nature of the series: Safety: body temperature, catalepsy, spontaneous locomotor activity, elevated plus maze, sensitivity to touch. The following applies: for adverse cannabimimetic activities in any of the parameters monitored: 2 mg/kg i.v. Format: in vivo, ICR male mice. The method, then:
In the present study, impact of compounds of the invention on the central nervous system was measured by monitoring the body temperature, catalepsy and spontaneous locomotor activity of rodents. These activities are part of the Tetrad assays which are indicative, if all parameters are affected, of CB1 mediated activity. In addition, lack of CNS psychomimetic effect was assessed in the elevated plus maze model. Finally, sensitivity to touch was determined in order to evaluate peripheral CB1 related activity.
ICR male mice (average body weight 25 g, Harlan, Israel) were administered the compounds of the invention i.v. at a dose of 2 mg/kg and at a volume dose of 5 ml/kg. The psychoactive cannabinoid HU-210 was used as positive control at the 100-fold lower dose of 0.02 mg/kg i.v. The following measurements were made starting 15 minutes after compound administration. All tests were completed for each animal within approximately 10 minutes. Rectal temperature was monitored using a thermistor probe (YSI model 400, USA). Spontaneous locomotion was assessed using the open field methodology. The number of squares crossed by the animals were recorded and analyzed during a period of three minutes. At the end of the open field test, the animals were tested for catalepsy symptoms. This was carried out by gently forcing the animal to stand on its hind paws when its front paws are holding on an elevated beam. The time for the animal to step down of the beam was measured in seconds. A normal animal withdraws the beam immediately whereas cataleptic animal tend to stay on the beam. The longer the animal stays leaning on the beam, the more cataleptic the animal is. The behavior of the animals was then assessed in the elevated plus maze. The elevated plus maze consists of two open arms and two arms that are enclosed by high walls (arms 30×10 cm, wall height 20 cm). The elevated plus maze is usually elevated 80 cm above the floor. The mouse is placed on the maze head facing an open arm, and the time spent in the different compartments of the maze (open arms, closed arms and central area) are measured for the next 5 minutes. Results are expressed as percent of the time spent in the open arms, normal animals preferring to stay in the closed arms of the maze. Finally, animals were gently touched by an observer blinded for the treatment group and their sensitivity scored according to the following scale: 0 not sensitive, 1 sensitive and 2 highly sensitive. Results are expressed as average±SEM. At the end of the study, the animals were euthanized.

In series [2] the test system is carrageenan induced inflammatory pain and paw edema. The series can be described thus: Inflammatory pain and paw edema induced by carrageenan. It is filed as in vivo, Male Sprague Dawley rats. The settings on record: Rattus norvegicus, ip; 10 mg/kg i.p., 3 hours after carrageenan, reduction in paw swelling; read-out: Percent Inhibition of Inflammatory Pain Responses, Edema. As to the method: Male Sprague Dawley rats (average body weight 200 g, Harlan, Israel) were transiently sedated by placement on dry ice for the duration of the injections. Rats were injected subcutaneously, in the subplantar region of one (right) paw with 0.1 ml of 2% w/v λ Carrageenan in sterile saline. […] Test compounds were, unless otherwise stated, administered i.p. at initial single dose of 3, 10 or 20 mg/kg, and volume dose of 5 ml/kg, immediately after the carrageenan injection. Selected compounds were also tested p.o. following oral gavage. Vehicle and celecoxib treated animals were used as controls. Each treatment group comprised at least seven animals.
Before induction of inflammatory pain and three hours after injection, the animals reactions to pain stimuli were tested in two systems. The first stimulus was thermal and assessed by the Plantar Test according to Hargreaves, using Ugo Basile Model 7370. The scale was set to an intensity of 50 arbitrary units. The latency time till the animal lift a paw as a reaction to the thermal stimulus was recorded for both the inflamed and non-inflamed hind paws. The second stimulus was mechanical (tactile) and assessed using a Dynamic Plantar Sesthesiomether (Ugo Basile Model 73400-002). […] Finally, the impact on paw edema was assessed. Paw thickness was measured using a dial thickness gauge (Spring-dial, constant low pressure gauge, Mitutoyo, TG/L-1, 0.01 mm) and paw volume was measured using a plethysmometer (model #7150, Ugo Basile, Italy). At the end of the study, animals were euthanized.
The results are measured as the differences between the two hind paws at time 0 and 3 hours both as ALT, for the latency time in the thermal part of the study, and as ΔForce, for the mechanical part of the study. The paw volume is expressed as percent from vehicle treated animals. Results are expressed as mean±SEM for each treatment group and the differences among those groups are analyzed by analysis of variance (ANOVA) followed by post-hoc Tukey's test.
Results refer to i.p. treatment with 10 mg/kg. Results marked with one asterisk refer to a dose 3 mg/kg, whereas two asterisks refer to 20 mg/kg. Celecoxib is included as reference.
For orientation: In the carrageenan paw model, swelling and tenderness develop within hours.

For series [3], the system named is visceral pain writhing responses. The series can be described thus: Visceral pain, acetic acid induced writhing responses. Format: in vivo, Male ICR mice. The following applies: Mus musculus, iv, single dose 2 mg/kg i.v., compared to untreated group; read-out: Percent Inhibition of Visceral Pain Writhing Responses. As to the method:
Male ICR mice (average body weight 25 g, Harlan, Israel) were pretreated by i.v. injection at volume dose of 5 ml/kg of vehicle, control and test compounds at various doses. Other routes of administration were tested for selected compounds including i.m. or s.c. injections at volume dose of 2.5 ml/kg and p.o. gavage at volume dose of 5 ml/kg. Compounds were dissolved in CREMOPHOR®:Ethanol and diluted 1:20 in saline prior to injection or gavage. Compounds administered i.v. were injected fifteen minutes before pain induction, whereas compounds administered i.m., s.c. or p.o. were supplied thirty minutes before pain induction, unless otherwise indicated. Each treatment group, except for controls comprising at least 30 animals, was composed of at least 6 animals. Fifteen or thirty minutes after drug administration, depending on the route of administration, the mice were injected i.p. with 10 ml/kg of 0.6% acetic acid and the number of visceral pain related behaviors (writhing movements globally defined as WR, i.e. stretching, contractions of the abdomen accompanied by an elongation of the body and extension of the hind limbs) was counted over a period of 5 minutes, starting 5 minutes after the acetic acid administration. These visceral pain related behaviors were globally defined as writhing responses (WR). The results are expressed as mean number of writhing responses ±SEM. Data were analyzed using analysis of variance (ANOVA) followed by post-hoc Fisher test.
On the technique in general: Writhing tests count abdominal constrictions after an irritant is injected.

[4] abbreviates: Human CB2 Receptor, upper plateau of curve, NB = no binding.
[5] abbreviates: Human CB2 Receptor, NB = no binding.

T1 sequence (P21554 whole entry): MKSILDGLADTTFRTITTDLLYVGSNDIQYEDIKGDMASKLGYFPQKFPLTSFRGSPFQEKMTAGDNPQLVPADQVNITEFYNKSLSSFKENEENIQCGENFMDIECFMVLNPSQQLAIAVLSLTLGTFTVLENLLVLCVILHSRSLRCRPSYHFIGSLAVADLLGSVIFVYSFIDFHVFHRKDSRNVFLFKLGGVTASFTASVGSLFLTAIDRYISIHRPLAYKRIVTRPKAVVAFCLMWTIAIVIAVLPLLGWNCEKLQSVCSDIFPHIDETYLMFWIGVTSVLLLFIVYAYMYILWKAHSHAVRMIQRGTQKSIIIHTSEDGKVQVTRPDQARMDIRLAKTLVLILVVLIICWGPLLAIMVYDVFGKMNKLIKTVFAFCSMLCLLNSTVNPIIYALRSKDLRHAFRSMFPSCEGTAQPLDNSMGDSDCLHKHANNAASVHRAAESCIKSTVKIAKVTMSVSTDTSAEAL

Consider `CCCCCCC(C)(C)c1ccc([C@@H]2C[C@H](O)CC[C@H]2CCCO)c(O)c1` [CP55940, reference compound], for which the Emax (as a rule, the greatest response seen or fitted, relative to the assay's reference) at Human CB1 Receptor lay within 50 to 100%; on Human CB2 Receptor (setting [4]), 30 to 60%.

Turning to `CCCCCCC(C)(C)c1cc(OC)cc2oc3c(c12)CC(C)(C)CC3=O` [Compound C6M-7, 9-(1,1-dimethylheptyl)-7-methoxy-2,2-dimethyl-2,3-dihydro-1H-dibenzofuran-4-one], in series [1], the “adverse cannabimimetic activities in any of the parameters monitored” value is recorded as “None”. Further, in series [2], the inhibition in vivo at 10 mg/kg turned out to be 26%.

For the compound `CCCCCCC(C)(C)c1cc(O)c2c(c1)OC(C)(C)[C@@H]1CC=C(CO)C[C@@H]21` [HU-210, reference compound], the less squares crossed result in series [1] (0.02 mg/kg i.v.) is recorded as “more than 50%”. Besides, in series [1] (0.02 mg/kg i.v., period of three minutes, vehicle 75.63±6.24), the “number of squares crossed (spontaneous locomotor activity)” value is recorded as 32.33±10.21. Moreover, the “drop of rectal temperature” value in series [1] (0.02 mg/kg i.v., statistically significant) is “about 2 °C”. For the same compound, the “sensitivity to touch, average score” value in series [1] (0.02 mg/kg i.v., scale 0 not sensitive, 1 sensitive, 2 highly sensitive) is “above 1”. Moreover, the rectal temperature in series [1] (0.02 mg/kg i.v., vehicle 38.88±0.11° C.) was 36.73±0.29 °C. Moreover, in series [1] (0.02 mg/kg i.v., vehicle about 15%), the “time spent in the open arms of the elevated plus maze” value is recorded as around 41%.

On to `CCCCCCC(C)(C)c1cc(O)c2c(c1)OC1C(=NO)CCCC21` (stereo not shown) [Compound C6S-27, 7-(1,1-Dimethylheptyl)-9-hydroxy-2,3,4a,9b-tetrahydro-1H-dibenzofuran-4-one oxime], for which the EC50 (as a rule, the midpoint of the concentration-response curve) is above 10000 nM at Human CB1 Receptor and 5560 nM on Human CB2 Receptor (setting [5]). The compound also registered an Emax on Human CB2 Receptor (setting [4]) of 64%.

As to `CCCCCCC(C)(C)c1cc(O)c2c3c(oc2c1)CC(C)(C)CC3` [Compound C6M-10, 3-(1,1-Dimethylheptyl)-7,7-dimethyl-6,7,8,9-tetrahydro-dibenzofuran-1-ol], the EC50 on Human CB1 Receptor is 5300 nM; on Human CB2 Receptor (setting [5]) it was 25 nM. For the same compound, the values for the Emax at Human CB1 Receptor and at Human CB2 Receptor (setting [4]) were 132% and 72%, respectively. The “agonistic activity toward cannabinoid receptors (in words)” value at Human CB2 Receptor is listed as “agonists specific toward the CB2 receptor”.

For the compound `CCCCCCC(C)(C)c1cc(OCC(=O)N(CC)CC)c2c(c1)OC1C(O)CCCCC21` (stereo not shown) [Compound C7S-17, 2-[2-(1,1-Dimethylheptyl)-9-hydroxy-5,6,7,8,9,9a-hexahydro-4bH-10-oxa-benzo[ ]azulen-4-yloxy]-N,N-diethyl-acetamide], the rectal temperature in series [1] (40 mg/kg i.v., 0.5 hr after injection) was 37.84±0.62 °C. The “rectal temperature below controls” value in series [1] (40 mg/kg i.v., 0.5 hr after injection, not statistically significant) is “about 0.9 °C”. In addition, the “rectal temperature (in words)” value in series [1] (40 mg/kg i.v., three hours after injection) was “back to baseline”.

Consider `CCCCCCC(C)(C)c1cc(O)c2c(c1)OC1CCCCC(C(=O)O)C21` (stereo not drawn) [Compound C7S-31, 2-(1,1-Dimethylheptyl)-4-hydroxy-5,6,7,8,9,9a-hexahydro-4bH-10-oxa-benzo[α]azulen-5-carboxylic acid], for which the concentration giving a half-maximal response (EC50) was above 10000 nM at Human CB1 Receptor and 641 nM at Human CB2 Receptor (setting [5]). Also, the Emax at Human CB2 Receptor (setting [4]) was 54%.

In the case of `CCCCCCC(C)(C)c1cc(O)c2c(c1)OC1C(O)CCCCC21` (single isomer, unassigned) [Compound C7S-30, 2-(,1-dimethylheptyl)-5,6,7,8,9,9a-hexahydro-4bH-10-oxa-benzo[α]azulen-4,9-diol], the figures for the EC50 at Human CB1 Receptor and on Human CB2 Receptor (setting [5]) were above 10000 nM and 1030 nM, respectively. The “Emax (%)” value on Human CB2 Receptor (setting [4]) was found to be 66%.

Consider `CC1(C)CCC2c3c(O)cc(C4(CCc5ccccc5)SCCS4)cc3OC2C1` (stereo not shown) [Compound C6S-38, 7,7-dimethyl-3-(2-phenethyl-[1,3]dithiolan-2-yl)-5a,6,7,8,9,9a-hexahydro-dibenzofuran-1-ol], for which the EC50 was above 10000 nM at Human CB1 Receptor and 184 nM on Human CB2 Receptor (setting [5]). The Emax on Human CB2 Receptor (setting [4]) is 19%.

Regarding `CCCCCCC(C)(C)c1cc(OC(=O)C=CC(=O)O)c2c(c1)OC1CC(C)(C)CCC21` (stereo not shown) [Compound C6S-37, But-2-enedioic acid mono-[3-(1,1-dimethylheptyl)-7,7-dimethyl-5a,6,7,8,9,9a-hexahydro-dibenzofuran-1-yl]ester], the figures for the EC50 on Human CB1 Receptor and on Human CB2 Receptor (setting [5]) were 3970 nM and 24 nM, respectively. Further, the values for the Emax on Human CB1 Receptor and at Human CB2 Receptor (setting [4]) were 102% and 44%, respectively. For the same compound, the “agonistic activity toward cannabinoid receptors (in words)” value on Human CB2 Receptor was “agonists specific toward the CB2 receptor”.

With `CCCCCCC(C)(C)c1cc(O)c2c(c1)OC1C2CCC(C)(C)C1O` (stereo not shown) [Compound C6S-8, 3-(1,1-dimethylheptyl)-7,7-dimethyl-5a,6,7,8,9,9a-hexahydro-dibenzofuran-1,6-diol], the inhibition in vivo at 2 mg/kg in series [3] came to 37%. Moreover, in series [1], the “adverse cannabimimetic activities in any of the parameters monitored” value is “None”.
